Assay results: US20120283295A1, “INDAZOLE DERIVATIVES AND THEIR USE FOR BLOCKADING VOLTAGE DEPENDENT SODIUM CHANNELS” (University College London, priority 2009, published 2012)
Where two headings read alike, the source gives them in different places.

Legend:
[1] = system: voltage dependent sodium channels; assay: Sodium channel activity, guanidine flux; assay type: cell-based
Procedure: (§2) Biological assays to determine sodium channel activity, neuroprotection and Nav isoform selectivity were carried out according to the protocols set out in Clutterbuck et al (2009), J. Med. Chem. 52, 2694-2707.

[2] = target: Nav1.1 (Homo sapiens, UniProt P35498); assay: Nav isoform selectivity, Nav1.1; assay type: cell-based
Procedure: as §2

[3] = target: Nav1.2 (Homo sapiens, UniProt Q99250); assay: Nav isoform selectivity, Nav1.2 (EP); assay type: cell-based; parameters: concentration or dose not given beside the values
[4] = target: Nav1.3 (Homo sapiens, UniProt Q9NY46); assay: Nav isoform selectivity, Nav1.3; assay type: cell-based; parameters: concentration or dose not given beside the values
[5] = target: Nav1.4 (Homo sapiens, UniProt P35499); assay: Nav isoform selectivity, Nav1.4; assay type: cell-based; parameters: concentration or dose not given beside the values
[6] = target: Nav1.6 (Homo sapiens, UniProt Q9UQD0); assay: Nav isoform selectivity, Nav1.6; assay type: cell-based; parameters: concentration or dose not given beside the values
[7] = target: Nav1.7 (Homo sapiens, UniProt Q15858); assay: Nav isoform selectivity, Nav1.7; assay type: cell-based; parameters: concentration or dose not given beside the values
[8] = target: Nav1.8 (Homo sapiens, UniProt Q9Y5Y9); assay: Nav isoform selectivity, Nav1.8; assay type: cell-based; parameters: concentration or dose not given beside the values
Nav1.8, sequence (Q9Y5Y9 whole entry, canonical isoform): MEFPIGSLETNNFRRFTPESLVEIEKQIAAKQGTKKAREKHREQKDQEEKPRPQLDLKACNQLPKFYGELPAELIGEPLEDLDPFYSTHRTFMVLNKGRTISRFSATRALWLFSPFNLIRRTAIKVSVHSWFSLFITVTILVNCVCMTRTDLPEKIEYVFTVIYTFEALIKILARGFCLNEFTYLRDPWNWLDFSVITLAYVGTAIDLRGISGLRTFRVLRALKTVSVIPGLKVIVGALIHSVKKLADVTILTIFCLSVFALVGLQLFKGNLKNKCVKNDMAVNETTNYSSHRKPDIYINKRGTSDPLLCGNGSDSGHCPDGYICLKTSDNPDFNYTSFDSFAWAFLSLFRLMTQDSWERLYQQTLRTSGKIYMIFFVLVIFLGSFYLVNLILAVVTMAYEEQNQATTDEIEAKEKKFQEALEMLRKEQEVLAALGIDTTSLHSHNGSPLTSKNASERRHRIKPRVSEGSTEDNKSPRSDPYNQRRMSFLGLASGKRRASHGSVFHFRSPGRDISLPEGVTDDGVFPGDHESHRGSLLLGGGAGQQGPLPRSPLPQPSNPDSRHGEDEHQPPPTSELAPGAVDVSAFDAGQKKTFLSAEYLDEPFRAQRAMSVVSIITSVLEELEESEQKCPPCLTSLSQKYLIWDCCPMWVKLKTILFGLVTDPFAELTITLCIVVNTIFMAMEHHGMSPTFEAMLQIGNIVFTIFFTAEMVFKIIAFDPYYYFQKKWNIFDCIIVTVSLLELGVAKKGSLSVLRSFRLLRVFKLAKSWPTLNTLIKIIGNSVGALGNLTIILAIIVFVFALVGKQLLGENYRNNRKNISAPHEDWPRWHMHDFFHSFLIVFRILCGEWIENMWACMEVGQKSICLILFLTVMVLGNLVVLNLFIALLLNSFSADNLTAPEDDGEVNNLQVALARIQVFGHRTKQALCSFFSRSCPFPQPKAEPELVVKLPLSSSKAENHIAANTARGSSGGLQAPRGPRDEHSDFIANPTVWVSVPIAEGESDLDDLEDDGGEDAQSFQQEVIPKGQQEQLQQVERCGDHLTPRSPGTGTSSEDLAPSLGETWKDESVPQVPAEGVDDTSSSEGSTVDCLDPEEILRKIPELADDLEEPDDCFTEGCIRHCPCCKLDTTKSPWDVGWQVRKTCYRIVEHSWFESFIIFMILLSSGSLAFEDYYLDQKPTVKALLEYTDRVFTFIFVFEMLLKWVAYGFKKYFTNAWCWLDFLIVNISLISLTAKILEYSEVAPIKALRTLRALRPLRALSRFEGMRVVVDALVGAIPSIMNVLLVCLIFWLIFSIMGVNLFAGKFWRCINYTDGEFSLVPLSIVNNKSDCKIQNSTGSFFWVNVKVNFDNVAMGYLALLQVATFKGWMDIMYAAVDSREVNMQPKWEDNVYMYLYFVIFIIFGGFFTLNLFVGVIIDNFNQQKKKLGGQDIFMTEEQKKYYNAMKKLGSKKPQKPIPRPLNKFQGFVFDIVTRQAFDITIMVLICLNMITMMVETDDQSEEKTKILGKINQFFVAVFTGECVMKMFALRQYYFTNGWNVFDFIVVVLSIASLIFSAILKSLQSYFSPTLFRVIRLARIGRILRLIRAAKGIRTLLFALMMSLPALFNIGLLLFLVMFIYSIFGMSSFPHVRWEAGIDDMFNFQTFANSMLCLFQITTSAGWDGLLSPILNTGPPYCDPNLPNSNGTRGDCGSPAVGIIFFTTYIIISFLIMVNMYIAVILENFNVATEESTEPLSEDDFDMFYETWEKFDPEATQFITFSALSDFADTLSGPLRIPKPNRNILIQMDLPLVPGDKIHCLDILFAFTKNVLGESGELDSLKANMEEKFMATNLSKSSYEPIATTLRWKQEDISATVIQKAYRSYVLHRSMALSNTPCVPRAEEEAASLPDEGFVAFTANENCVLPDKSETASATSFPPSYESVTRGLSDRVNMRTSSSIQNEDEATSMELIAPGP

[9] = target: T1, Nav1.5 (Homo sapiens, UniProt Q14524); assay: Nav isoform selectivity, Nav1.5
T1 sequence (Q14524 whole entry, canonical isoform): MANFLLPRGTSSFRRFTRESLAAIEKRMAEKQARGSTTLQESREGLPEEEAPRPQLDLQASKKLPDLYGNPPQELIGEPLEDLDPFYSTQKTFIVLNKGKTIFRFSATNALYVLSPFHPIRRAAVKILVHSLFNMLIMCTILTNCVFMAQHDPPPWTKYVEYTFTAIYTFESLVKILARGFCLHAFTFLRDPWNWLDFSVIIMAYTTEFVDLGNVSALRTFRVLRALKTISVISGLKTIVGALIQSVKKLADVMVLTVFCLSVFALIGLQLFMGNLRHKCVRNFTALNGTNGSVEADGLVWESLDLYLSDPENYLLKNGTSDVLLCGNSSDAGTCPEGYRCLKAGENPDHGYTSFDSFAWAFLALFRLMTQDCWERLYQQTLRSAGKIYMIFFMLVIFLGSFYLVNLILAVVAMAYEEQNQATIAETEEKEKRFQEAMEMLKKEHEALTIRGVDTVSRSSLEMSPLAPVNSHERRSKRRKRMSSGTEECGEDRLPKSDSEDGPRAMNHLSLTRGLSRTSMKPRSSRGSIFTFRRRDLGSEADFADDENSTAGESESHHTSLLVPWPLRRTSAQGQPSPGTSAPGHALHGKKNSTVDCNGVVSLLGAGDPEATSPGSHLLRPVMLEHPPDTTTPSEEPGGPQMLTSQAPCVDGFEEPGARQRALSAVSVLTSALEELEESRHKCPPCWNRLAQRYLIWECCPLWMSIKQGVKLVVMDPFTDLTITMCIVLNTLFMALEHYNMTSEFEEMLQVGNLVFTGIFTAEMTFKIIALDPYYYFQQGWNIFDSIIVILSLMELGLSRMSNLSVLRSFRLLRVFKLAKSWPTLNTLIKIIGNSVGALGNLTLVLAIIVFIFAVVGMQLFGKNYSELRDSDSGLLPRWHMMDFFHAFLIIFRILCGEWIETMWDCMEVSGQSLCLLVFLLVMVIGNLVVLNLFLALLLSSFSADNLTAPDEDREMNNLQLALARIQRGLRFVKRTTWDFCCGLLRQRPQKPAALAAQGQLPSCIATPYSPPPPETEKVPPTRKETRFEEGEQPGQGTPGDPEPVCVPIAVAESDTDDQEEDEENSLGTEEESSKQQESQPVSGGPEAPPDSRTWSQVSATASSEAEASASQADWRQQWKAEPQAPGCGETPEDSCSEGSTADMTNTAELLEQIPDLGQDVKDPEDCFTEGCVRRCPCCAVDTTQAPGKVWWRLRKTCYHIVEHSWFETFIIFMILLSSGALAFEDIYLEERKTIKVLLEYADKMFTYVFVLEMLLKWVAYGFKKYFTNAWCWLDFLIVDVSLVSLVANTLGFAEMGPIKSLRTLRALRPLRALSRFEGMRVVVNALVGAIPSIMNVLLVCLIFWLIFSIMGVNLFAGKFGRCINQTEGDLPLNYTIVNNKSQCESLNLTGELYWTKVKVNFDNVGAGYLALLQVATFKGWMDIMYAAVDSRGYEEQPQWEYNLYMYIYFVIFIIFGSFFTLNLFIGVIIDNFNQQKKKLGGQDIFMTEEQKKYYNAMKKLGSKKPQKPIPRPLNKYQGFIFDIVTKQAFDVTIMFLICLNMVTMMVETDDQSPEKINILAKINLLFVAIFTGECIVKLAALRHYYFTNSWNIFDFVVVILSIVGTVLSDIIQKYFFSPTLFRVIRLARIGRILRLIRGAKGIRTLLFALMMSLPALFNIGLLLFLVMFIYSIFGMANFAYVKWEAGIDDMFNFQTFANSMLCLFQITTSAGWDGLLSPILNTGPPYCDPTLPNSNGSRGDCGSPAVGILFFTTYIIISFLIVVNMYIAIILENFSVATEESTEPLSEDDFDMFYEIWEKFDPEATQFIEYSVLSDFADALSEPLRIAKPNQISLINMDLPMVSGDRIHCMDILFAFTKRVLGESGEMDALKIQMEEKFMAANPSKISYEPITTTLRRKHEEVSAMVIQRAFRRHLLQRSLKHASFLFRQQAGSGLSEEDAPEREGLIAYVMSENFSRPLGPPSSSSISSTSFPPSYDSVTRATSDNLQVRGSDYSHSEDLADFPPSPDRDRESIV

[10] = system: lymph node proliferative responses; assay: Immunosuppressive activity, contact-hypersensitivity paradigm; assay type: in vivo; conditions: daily i.p. 5, 25 and 50 mg/kg from a day before sensitization; compared to vehicle
Procedure: (§1) The immunosuppressive activity of Example 15 was investigated using a simple contact-hypersensitivity paradigm. […] (Data not shown). Therefore, it was not necessary to dose-titrate Example 15 in order to avoid the immunosuppression-induced neuroprotection that would mask any real neuroprotective action of Example 15. In order to limit animal usage required for a full-dose-response, as proof-of-principle, 10 mg/kg of Example 15 i.p. was selected as an initial dose for study. This dose was within the range used in humans for sodium channel-blocking agents (1-50 mg/kg p.o.), particularly when scaled to mouse (USDHHS, 2005), and was well below the maximum tolerated dose (>50 mg/kg/daily). This was investigated for a neuroprotective potential in an induced-relapse during experimental autoimmune encephalomyelitis (EAE).
T cell proliferation per 5×10^5 lymph node cells or proliferation adjusted for the number of cells in the lymph nodes is shown in FIGS. 2 and 3.

[11] = in vivo
Procedure: as §1

[12] = system: induced-relapse EAE in ABH mice; assay: Induced-relapse experimental autoimmune encephalomyelitis (EAE); assay type: in vivo
Excerpt: In many rodent models of MS, particularly during EAE the ABH mice, there is limited demyelination and nerve damage during the initial acute-phase of paralysis that occurs 2-3 weeks following sensitization (Baker et al. 1990, Jackson et al. 2005). Nerve damage and demyelination becomes more pronounced with disease duration and the development of relapsing disease (Baker et al. 1990). The neuroprotective potential of Example 15 was therefore examined in an induced-relapse EAE paradigm.
ABH mice were injected with 1 mg mouse spinal cord homogenate in Freunds adjuvant on days 0 and 7 p.i. to induce EAE and this was repeated on 27 p.i. to induce a relapse. Animals were injected daily i.p. with either vehicle or 10 mg/kg Example 15 from day 33 onwards. Animals were monitored for the development of clinical disease and the results represent: (A) The mean maximal clinical score, during the initial acute attack around day 15-20 and the clinical relapse around day 34-40, or the mean minimal clinical score during remission from paralytic attacks. (B) The mean daily clinical score following induction of relapse. (C) The time taken to fall from an accelerating rotorod was monitored pre-treatment on day 25 or on day 48 post-disease induction, when the experiment was terminated. (D) The spinal cords were removed and nerve content was measured using a neurofilament heavy chain (Nfh)-specific ELISA. The results represent the mean±SEM of 8 animals per group. *P<0.05, **P<0.01, ***P<0.001 compared to vehicle-treated animals.

[13] = target: T1, Nav1.5
[14] = 10 mg/kg daily i.p. from day 33, vs vehicle

| SMILES | IC50 [1] [µM] | Nav isoform inhibition (%) Nav1.1 [2] [%] | Nav isoform inhibition (%) Nav1.2 EP [3] [%] | Nav isoform inhibition (%) Nav1.2 EP UD [3] | Nav isoform inhibition (%) Nav1.3 [4] [%] | Nav isoform inhibition (%) Nav1.4 [5] [%] | Nav isoform inhibition (%) Nav1.6 [6] [%] | Nav isoform inhibition (%) Nav1.7 [7] [%] | Nav isoform inhibition (%) Nav1.8 [8] [%] | Nav isoform inhibition (%) Nav1.5 [9] [%] | also measured |
| --- | --- | --- | --- | --- | --- | --- | --- | --- | --- | --- | --- |
| CC(C)(C)OC(=O)NCc1noc(-c2nn(CCn3ccnc3)c3ccccc23)n1 [Example 1, tert-butyl (5-(1-(2-(1H-imidazol-1-yl)ethyl)-1H-indazol-3-yl)-1,2,4-oxadiazol-3-yl)methylcarbamate] | 102 |  |  |  |  |  |  |  |  |  |  |
| CC(C)(C)OC(=O)NCc1noc(-c2c3ccccc3nn2CCn2ccnc2)n1 [Example 2, tert-butyl (5-(2-(2-(1H-imidazol-1-yl)ethyl)-2H-indazol-3-yl)-1,2,4-oxadiazol-3-yl)methylcarbamate] | 11 |  |  |  |  |  |  |  |  |  |  |
| O=C(NCc1noc(-c2c3ccccc3nn2CCn2ccnc2)n1)c1ccccc1 [Example 5, N-((5-(2-(2-(1H-imidazol-1-yl)ethyl)-2H-indazol-3-yl)-1,2,4-oxadiazol-3-yl)methyl)benzamide] | 324 |  |  |  |  |  |  |  |  |  |  |
| COc1cccc(C(=O)NCc2noc(-c3c4ccccc4nn3CCn3ccnc3)n2)c1OC [Example 6, N-((5-(2-(2-(1H-imidazol-1-yl)ethyl)-2H-indazol-3-yl)-1,2,4-oxadiazol-3-yl)methyl)-2,3-dimethoxybenzamide] | 34 | 56 | 24.4 | 24.1% | 54 | 45 | 73 | 96 | 87 | 99 |  |
| COc1cccc(C(=O)NCc2noc(-c3c4ccccc4nn3CCn3ccnc3)n2)c1OC [Example 7, N-((5-(2-(2-(1H-imidazol-1-yl)ethyl)-2H-indazol-3-yl)-1,2,4-oxadiazol-3-yl)methyl)-2,3-dimethoxybenzamide] | 4 |  |  |  |  |  |  |  |  |  |  |
| O=C(NCc1noc(-c2c3ccccc3nn2CCn2ccnc2)n1)c1ccc(Cl)cc1 [Example 9, N-((5-(2-(2-(1H-imidazol-1-yl)ethyl)-2H-indazol-3-yl)-1,2,4-oxadiazol-3-yl)methyl)-4-chlorobenzamide] | 22 |  |  |  |  |  |  |  |  |  |  |
| O=C(NCc1noc(-c2c3ccccc3nn2CCn2ccnc2)n1)c1cccc(F)c1F [Example 10, N-((5-(2-(2-(1H-imidazol-1-yl)ethyl)-2H-indazol-3-yl)-1,2,4-oxadiazol-3-yl)methyl)-2,3-difluorobenzamide] |  | 54 |  |  | 51 | 77 | 76 | 81 | 84 | 84 |  |
| O=C(NCc1noc(-c2c3ccccc3nn2CCn2ccnc2)n1)c1ccc2ccccc2c1 [Example 11, N-((5-(2-(2-(1H-imidazol-1-yl)ethyl)-2H-indazol-3-yl)-1,2,4-oxadiazol-3-yl)methyl)-2-naphthamide] |  | 83 |  |  | 63 | 97 | 86 | 33 | 91 | 98 |  |
| O=C(NCc1noc(-c2c3ccccc3nn2CCn2ccnc2)n1)c1cccc(OC(F)(F)F)c1 [Example 14, N-((5-(2-(2-(1H-imidazol-1-yl)ethyl)-2H-indazol-3-yl)-1,2,4-oxadiazol-3-yl)methyl)-3-(trifluoromethoxy)benzamide] | 32 | 96 | 98.5 | not detected | 41 | 98 | 79 | 46 | 94 | 95 |  |
| O=C(NCc1noc(-c2nn(CCn3ccnc3)c3ccccc23)n1)c1ccccc1 [Example 15, N-((5-(1-(2-(1H-imidazol-1-yl)ethyl)-1H-indazol-3-yl)-1,2,4-oxadiazol-3-yl)methyl)benzamide] |  |  |  |  |  |  |  |  |  |  | Inhibition of lymph node proliferative responses [10]: failed to inhibit; Maximum tolerated dose [11]: > 50 mg/kg/daily; Loss of motor-function as a consequence of relapse, rotarod ([12]; 10 mg/kg daily i.p. from day 33, day 48, vs vehicle): significantly (P<0.001) reduced; Incidence, onset or maximum severity of relapsing EAE [12, 14]: did not significantly (P>0.05) inhibit; Nerve loss in spinal cord, neurofilament heavy chain ELISA [12, 14]: reduce nerve loss; Recovery of motor-function during remission (clinical score) [12, 14]: significantly (P<0.01) greater degree of recovery |
| COc1ccc(C(=O)NCc2noc(-c3nn(CCn4ccnc4)c4ccccc34)n2)c(OC)c1OC [Example 16, N-((5-(1-(2-(1H-imidazol-1-yl)ethyl)-1H-indazol-3-yl)-1,2,4-oxadiazol-3-yl)methyl)-2,3,4-trimethoxybenzamide] |  | 24 | 1.1 | 1.5% | 39 | 43 | 63 | 96 | 48 |  | Nav isoform inhibition (%) Nav1.5 [13]: 64% |
| COc1cccc(C(=O)NCc2noc(-c3nn(CCn4ccnc4)c4ccccc34)n2)c1OC [Example 30, N-((5-(1-(2-(1H-imidazol-1-yl)ethyl)-1H-indazol-3-yl)-1,2,4-oxadiazol-3-yl)methyl)-2,3-dimethoxybenzamide] |  | 26 | 0.1 | 6.4% | 14 | 33 | 77 | 94 | 62 | 71 |  |
